Test results taken from PubChem BioAssay (NCI).
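96-well plates; 48 h exposure; 5 concentrations. Endpoints by linear interpolation between flanking doses. Not reached: highest tested concentration assigned. At the GI50, growth is halved. At the TGI there is no net growth.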

Key:
Assay in all cases: growth of human tumour cells (NCI), 48 h
[1] = system: SR leukemia
[2] = system: MCF7 breast
[3] = system: COLO 205 colon
[4] = system: CAKI-1 renal
[5] = system: HCT-15 colon
[6] = system: IGROV1 ovarian
[7] = system: CCRF-CEM leukemia
[8] = system: K-562 leukemia
[9] = system: HOP-62 NSCLC
[10] = system: OVCAR-4 ovarian
[11] = system: SK-MEL-28 melanoma
[12] = system: EKVX NSCLC
[13] = system: OVCAR-5 ovarian
[14] = system: MDA-MB-231 breast
[15] = system: U251 CNS
[16] = system: UACC-257 melanoma
[17] = system: PC-3 prostate
[18] = system: SK-OV-3 ovarian
[19] = system: SK-MEL-5 melanoma
[20] = system: RPMI-8226 leukemia
[21] = system: HT29 colon
[22] = system: KM12 colon
[23] = system: MOLT-4 leukemia
[24] = system: SW-620 colon
[25] = system: UO-31 renal
[26] = system: A549 NSCLC
[27] = system: OVCAR-3 ovarian
[28] = system: SN12C renal
[29] = system: HCT-116 colon

`COCCOCCOCCOc1ccc(-n2cc(CCCN(CCNc3ccnc4cc(Cl)ccc34)C(=O)CCC(=O)O[C@@H]3O[C@@H]4OC5(C)CC[C@H]6[C@H](C)CC[C@@H]([C@H]3C)[C@@]46OO5)nn2)cc1` gave a GI50 [1] of 0.375 µM, a TGI [1] of 3.34 µM and a GI50 [2] of 1.04 µM. It also gave a TGI [2] of over 10.3 µM, a GI50 [3] of 1.12 µM and a TGI [3] of over 10.3 µM. The GI50 [4] was over 10.3 µM, the TGI [4] was over 10.3 µM and the GI50 [5] was 0.388 µM. It also gave a TGI [5] of over 10.3 µM, a GI50 [6] of 4.54 µM and a TGI [6] of over 10.3 µM. It also gave a GI50 [7] of 1.07 µM, a TGI [7] of over 10.3 µM and a GI50 [8] of 0.434 µM. For the same compound, the TGI [8] was over 10.3 µM, the GI50 [9] was over 10.3 µM and the TGI [9] was over 10.3 µM. It also gave a GI50 [10] of 2 µM, a TGI [10] of over 10.3 µM and a GI50 [11] of 4.01 µM. For the same compound, the TGI [11] was over 10.3 µM, the GI50 [12] was 1.67 µM and the TGI [12] was over 10.3 µM. It also gave a GI50 [13] of 1.7 µM, a TGI [13] of over 10.3 µM and a GI50 [14] of over 10.3 µM. The TGI [14] was over 10.3 µM, the GI50 [15] was 4.31 µM and the TGI [15] was over 10.3 µM. For the same compound, the GI50 [16] was 1.86 µM, the TGI [16] was over 10.3 µM and the GI50 [17] was 0.301 µM. The TGI [17] was over 10.3 µM, the GI50 [18] was over 10.3 µM and the TGI [18] was over 10.3 µM. For the same compound, the GI50 [19] was 1.18 µM, the TGI [19] was 8.81 µM and the GI50 [20] was 0.386 µM. It also gave a TGI [20] of over 10.3 µM, a GI50 [21] of 1.23 µM and a TGI [21] of over 10.3 µM. For the same compound, the GI50 [22] was 0.792 µM, the TGI [22] was over 10.3 µM and the GI50 [23] was 0.408 µM. For the same compound, the TGI [23] was over 10.3 µM, the GI50 [24] was 0.654 µM and the TGI [24] was over 10.3 µM. The GI50 [25] was 1.37 µM, the TGI [25] was over 10.3 µM and the GI50 [26] was 6.09 µM. It also gave a TGI [26] of over 10.3 µM, a GI50 [27] of 0.883 µM and a TGI [27] of over 10.3 µM. It also gave a GI50 [28] of 4.77 µM, a TGI [28] of over 10.3 µM and a GI50 [29] of 0.434 µM. It also gave a TGI [29] of over 10.3 µM.
